# Where “and” joins values, the source holds several entries; their conditions need not be identical. Equal values may be shown once.
# How the values were obtained:
# streptavidin (STR) = streptavidin (STR) (Streptomyces avidinii, UniProt P22629); assay: Protein labeling with reactive dye, degree of substitution on streptavidin; details: for Degree of Substitution: STR
# Procedure: Protein conjugates of sulforhodamine 101 are prepared using Compound 2 (Example 2). The degree of substitution achieved on the selected proteins (bovine serum albumin (BSA), goat anti-mouse IgG (GAM) or streptavidin (STR)) is then determined.
# A fresh solution of the desired protein is prepared that is 10 mg protein/mL in 0.1 M sodium bicarbonate. The labeling reagent (Compound 2) is dissolved in DMF to give a concentration of 10 mg dye/mL. Predetermined amounts of the labeling reagent in DMF are slowly added to the protein solution with stirring. A molar ratio of 10 equivalents dye to equivalent of protein is typical, though the optimal amount varies with particular labeling reagent and protein being labeled. The reaction mixture is incubated at room temperature for one hour. The dye-protein conjugate is separated from free unreacted reagent by gel filtration on a CELLUFINE GH-25 column equilibrated in PBS. The initial, protein-containing colored band is collected from the column, and the degree of substitution is determined by measuring the absorbance of the conjugate at 595 nm, and calculating the degree of substitution using an extinction coefficient of 80,000 cm^−1M^−1 for the dye.
# Dye conjugates are similarly prepared using SSC excepting that the protein solution is maintained at pH 9, and the labeling reaction is conducted at ice bath temperatures to minimize hydrolysis of the labeling reagent.
# [1] = target: bovine serum albumin (BSA) (Bos taurus, UniProt P02769); assay: Protein labeling with reactive dye, degree of substitution on BSA; details: Dye:Protein Ratio 15
# Procedure: A fresh solution of the desired protein is prepared that is 10 mg protein/mL in 0.1 M sodium bicarbonate. […] Predetermined amounts of the labeling reagent in DMF are slowly added to the protein solution with stirring. A molar ratio of 10 equivalents dye to equivalent of protein is typical, though the optimal amount varies with particular labeling reagent and protein being labeled. The reaction mixture is incubated at room temperature for one hour. The dye-protein conjugate is separated from free unreacted reagent by gel filtration on a CELLUFINE GH-25 column equilibrated in PBS. The initial, protein-containing colored band is collected from the column, and the degree of substitution is determined by measuring the absorbance of the conjugate at 595 nm, and calculating the degree of substitution using an extinction coefficient of 80,000 cm^−1M^−1 for the dye.
# [2] = 90% DMF and 10% aqueous sodium bicarbonate; two hours of incubation; TLC
# Procedure: Compound 2 and SSC are separately dissolved in solutions that are 90% DMF and 10% aqueous sodium bicarbonate. Each solution is analyzed using thin layer chromatography (TLC) as follows: An aliquot from each sample is diluted 1:100 in methanol and 1 μL of the resulting solution is spotted on a silica gel TLC plate and developed in 15% methanol in chloroform.
# Chain of streptavidin (STR) (P22629 25-183, species assumed): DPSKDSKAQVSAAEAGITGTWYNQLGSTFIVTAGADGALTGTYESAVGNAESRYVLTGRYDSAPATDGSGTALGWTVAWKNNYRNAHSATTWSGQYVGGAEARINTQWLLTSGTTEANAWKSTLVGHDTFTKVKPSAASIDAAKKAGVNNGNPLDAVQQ
# Chain of bovine serum albumin (BSA) (P02769 25-607): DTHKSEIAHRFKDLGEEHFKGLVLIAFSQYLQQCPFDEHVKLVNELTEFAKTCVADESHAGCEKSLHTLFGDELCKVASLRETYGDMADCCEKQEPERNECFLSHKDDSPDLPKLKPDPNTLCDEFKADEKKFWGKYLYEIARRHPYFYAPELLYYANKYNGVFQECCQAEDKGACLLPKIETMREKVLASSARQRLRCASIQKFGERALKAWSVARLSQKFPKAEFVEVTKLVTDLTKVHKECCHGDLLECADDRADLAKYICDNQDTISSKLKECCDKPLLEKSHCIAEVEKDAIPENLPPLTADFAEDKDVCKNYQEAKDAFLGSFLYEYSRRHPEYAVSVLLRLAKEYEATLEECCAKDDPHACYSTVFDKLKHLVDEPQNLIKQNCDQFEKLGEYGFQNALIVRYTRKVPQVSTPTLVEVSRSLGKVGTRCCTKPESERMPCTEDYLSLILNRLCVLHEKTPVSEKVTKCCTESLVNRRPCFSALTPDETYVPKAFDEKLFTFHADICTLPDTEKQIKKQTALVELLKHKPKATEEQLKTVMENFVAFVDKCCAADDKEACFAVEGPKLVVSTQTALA
Compound,Degree of Substitution (streptavidin (STR); Dye:Protein Ratio 1),Degree of Substitution (streptavidin (STR); Dye:Protein Ratio 2.5),Degree of Substitution (streptavidin (STR); Dye:Protein Ratio 5.5),Degree of Substitution (streptavidin (STR); Dye:Protein Ratio 8.0),Degree of Substitution (streptavidin (STR); Dye:Protein Ratio 10),Degree of Substitution (streptavidin (STR); Dye:Protein Ratio 20),Degree of Substitution (streptavidin (STR); Dye:Protein Ratio 30),Degree of Substitution [1],Decomposition in the presence of water [2],Degree of substitution of the streptavidin conjugates used as immunoreagents (streptavidin (STR); two conjugates used in Example 24)
O=C(CCCCCNS(=O)(=O)c1ccc(C2=c3cc4c5c(c3Oc3c2cc2c6c3CCCN6CCC2)CCC[N+]=5CCC4)c(S(=O)(=O)[O-])c1)ON1C(=O)CCC1=O [Compound 2],0.76,1.6,4.4,5.6,6.0,6.0,6.9,4.5,10-20%,–
streptavidin conjugates of SSC: two streptavidin conjugates prepared with SSC [reference compound],–,–,–,–,–,–,–,–,–,2.4 dyes per mole and 3.9 dyes per mole
"sulfonyl chloride of sulforhodamine 101 [SSC, reference compound]",0.066,1.2,2.4,3.0,3.9,4.9,5.1,3.2,–,–
